According to patent US7888504B2, “Glucokinase activators and methods of using same” (Bristol-Myers Squibb Company, priority 2006, dated 2011):

molecular target: T1, Human Glucokinase (Homo sapiens, UniProt P35557); experiment: tandem Glucokinase activation assay (uncoupled); format: biochemical; settings: 12 mM glucose; human full-length GK 15 nM
T1 construct: Full-length human hepatic GK (untagged); made in house; host or cells: E. coli BL21 STAR (DE3)pLysS
T1 sequence (P35557 1-466 isoform P35557-2): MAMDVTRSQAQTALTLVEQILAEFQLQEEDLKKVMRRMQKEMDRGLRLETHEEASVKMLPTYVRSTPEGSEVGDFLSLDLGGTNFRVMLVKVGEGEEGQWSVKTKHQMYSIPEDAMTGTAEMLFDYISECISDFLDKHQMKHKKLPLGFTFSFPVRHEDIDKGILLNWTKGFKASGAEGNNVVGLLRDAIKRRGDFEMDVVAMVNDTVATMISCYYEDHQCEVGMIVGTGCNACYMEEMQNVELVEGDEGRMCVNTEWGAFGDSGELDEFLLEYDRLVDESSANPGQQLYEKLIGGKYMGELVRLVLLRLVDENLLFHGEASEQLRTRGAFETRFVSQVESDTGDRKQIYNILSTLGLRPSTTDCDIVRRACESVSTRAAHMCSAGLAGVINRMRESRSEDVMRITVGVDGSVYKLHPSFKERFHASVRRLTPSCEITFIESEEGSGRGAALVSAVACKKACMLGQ
Experimental: A tandem Glucokinase activation assay (uncoupled) was used to assess the activity of glucokinase (GK) in the presence of GK activator compounds. The below-described tandem assay protocol was followed using a range of activator compound concentrations from 0 to 100 µM at 5 and 12 mM concentrations of glucose. Human full-length GK (15 nM) was incubated with 5 or 12 mM glucose in 384 well black microtiter plates with a clear bottom. To initiate the GK reaction, magnesium-ATP (3 mM final concentration) was added to the protein in buffer, under the final buffer conditions of 25 mM HEPES buffer, pH 7.1, containing 1 mM DTT (dithiothreitol) and […]. The total reaction volume was 20 μL. The reaction was allowed to proceed for ten minutes and was then quenched with 5 μL EDTA (ethylenediamine tetra-acetic acid; 45 mM final). The components of the detection reaction, ThioNAD (thio-nicotinamide adenine dinucleotide) and G6PDH (glucose-6-phosphate dehydrogenase) (final concentrations of 650 μM and 3.33 Units, respectively), were then added together in a volume of 25 μL, and a total volume of 50 μL. Absorbance was read and activation calculated as a percentage of background activity, ie., GK in the presence of DMSO, with background glucose-6-phosphate subtracted. Absorbance measurements were made at 405 nm on a Spectramax Plus 384 absorbance plate reader (Molecular Devices). Background glucose-6-phosphate was determined by pre-quenching GK with EDTA prior to reaction initiation with ATP.
Expression and Purification of Human GK
Full-length human hepatic GK (untagged) as expressed in BL21 STAR (DE3)pLysS cells (Invitrogen) at 25° C. as described by Mookhtiar et al.^1 The protein was purified essentially as described by Lange^2 with a slight modification. Cell pellets were lysed via three rounds of freezing and thawing, centrifuged at 15000 g for clarification, and precipitated with 40-65% (NH4)2SO4. The resulting pellet was re-suspended in buffer dialyzed, and applied directly to a Q-Sepharose (Sigma) column followed by elution with a linear 100-600 mM KCl gradient. GK containing fractions were pooled, dialyzed overnight vs. 25 mM HEPES pH 7.2/1 mM MgCl2/1 mM EDTA/0.1 M KCl/1 mM DTT, then dialyzed again with the same buffer with 10% glycerol added. ^1Mookhtiar, K. A., Kalinowski, S. S., Brown, K. S., Tsay, Y. H., Smith-Monroy, C., and Robinson, G. W. (1996) “Heterologous expression and characterization of rat liver glucokinase regulatory protein”, Diabetes 45:1670-1677.^2Lange, A. J., Xu, L. Z., Van Poelwijk, F., Lin, K., Granner, D. K., and Pilkis, S. J. (1991) “Expression and site-directed mutagenesis of hepatic glucokinase”, Biochem. J., 277:159-163.

Question: For `CS(=O)(=O)c1ccc([C@@H](CC2CCCC2)C(=O)Nc2ncc(Oc3cncc(C(=O)O)c3)s2)cc1` [Example 8], which EC50 is on record?
Answer: 753 nM

Question: Which EC50 does the source give for `O=C(Nc1ncc(Oc2cccc(C(=O)N3CCC3)c2)s1)[C@H](CC1CCOCC1)c1ccc(S(=O)(=O)C2CC2)cc1` [Example 18] here?
Answer: 39 nM

Question: Which EC50 does the source give for `O=C(Nc1ncc(Oc2cccc(C(=O)N3CC(O)C3)c2)s1)[C@H](CC1CCOCC1)c1ccc(S(=O)(=O)C2CC2)cc1` [Example 19] here?
Answer: 38 nM

Question: How did the EC50 turn out when `CS(=O)(=O)c1ccc([C@@H](CC2CCCC2)C(=O)Nc2ncc(Oc3ccc(C#N)cc3)s2)cc1` [Example 20] was run?
Answer: 8700 nM

Question: Which EC50 does the source give for `CS(=O)(=O)c1ccc([C@@H](CC2CCCC2)C(=O)Nc2ncc(Oc3cccc(C(N)=O)c3)s2)cc1` [Example 21] here?
Answer: 858 nM

Question: With `CS(=O)(=O)c1ccc([C@@H](CC2CCCC2)C(=O)Nc2ncc(Oc3ccccc3C(N)=O)s2)cc1` [Example 24] as the compound, how does the EC50 read?
Answer: 3960 nM

tested on: DIO mice; experiment: Oral glucose tolerance test (OGTT) in DIO mice; format: in vivo; settings: male DIO C57BL/6J mice, 60 mg/kg oral, given 60 min before 2 g/kg glucose, ΔAUC 0-120 min
Experimental: In Vivo Studies: Oral Glucose Tolerance Test (OGTT)
Oral glucose tolerance tests were carried out on male DIO (diet-induced obese C57BL/6J mice fed a high fat diet (60% kcal from fat) for 26 weeks prior to experimentation. Mice were fasted overnight before use for experiments. A test compound or vehicle (10% dimethyl acetamide+10% ethanol+10% Cremophore+70% water) was given orally 60 min before oral administration of a glucose solution at a dose of 2 g/kg body weight (oral glucose tolerance test; OGTT). Blood glucose levels were measured from tail-bled samples taken at different time points before and after administration of glucose (time course of 2 hours). A time curve of the blood glucose was generated and the change from baseline area-under-the curve (ΔAUC) from 0-120 min was calculated (the time glucose administration being time zero).

Question: Which “reduction of glucose AUC levels in an OGTT” value does the source give for `CS(=O)(=O)c1ccc([C@@H](CC2CCCC2)C(=O)Nc2ncc(Oc3ccc(C(=O)O)cc3)s2)cc1` [Example 9] here?
Answer: 37%
